Test results published in US9918964B2, “Reducing platelet activation, aggregation and platelet-stimulated thrombosis or blood coagulation by reducing mitochondrial respiration” (priority 2010, dated 2018).
≈ marks a conversion by molar mass, not a printed value. Read-outs that look alike come from different tables or passages of the source.

Experiments:
platelets in whole blood = assay: Platelet function testing with the Hemostasis Mechanism Analyzer (HMA): clumping, sticking, clotting in whole blood; assay type: cell-based, human; settings: for activity in the platelet assays (active agent or inactive): in vitro whole blood assay, clumping, sticking, clotting; for activity at 6700 µg/mL / activity at 670 µg/mL / activity at 3300 µg/mL / activity at 11700 µg/mL / activity at 23300 µg/mL / activity at 5000 µg/mL / activity at 700 µg/mL: Homo sapiens, Platelet; for activity at 670 µg/mL: Dosage (mg/ml) 0.67; for activity at 3300 µg/mL: Dosage (mg/ml) 3.3; for activity at 11700 µg/mL: Dosage (mg/ml) 11.7; for activity at 23300 µg/mL: Dosage (mg/ml) 23.3; for activity at 5000 µg/mL: Dosage (mg/ml) 5; for activity at 700 µg/mL: Dosage (mg/ml) 0.7
[1] = tested on: mitochondria isolated from liver of tilapia (Sarotheridon mossambica); assay type: biochemical
[2] = Dosage (mg/ml) 6.7, 0 dosage = 100, read-out: % clot time increase
[3] = Dosage (mg/ml) 6.7, 0 dosage = 100, read-out: % clump time increase
[4] = Dosage (mg/ml) 6.7, 0 dosage = 100, read-out: % stick time increase
[5] = 0 dosage = 100, read-out: % clot time increase
[6] = 0 dosage = 100, read-out: % clump time increase
[7] = 0 dosage = 100, read-out: % stick time increase

C[N+](C)(C)[C@H](Cc1c[nH]c(=S)[nH]1)C(=O)[O-] [Compound 51, (2R)-3-(2-thioxo-1,3-dihydroimidazol-4-yl)-2-(trimethylammonio) propanoate]
activity in the platelet assays (active agent or inactive) (platelets in whole blood): inactive
IC50 (mg/ml) mitochondria inhibition [1]: 93.8 mg/mL (≈ 409 mM)

COc1ccc(-c2nnn[nH]2)cc1 [Compound 26, 5-(4-methoxyphenyl)-1H-tetrazole]
activity at 6700 µg/mL (platelets in whole blood; [2]): 102%
activity at 6700 µg/mL (platelets in whole blood; [3]): 122%
activity at 6700 µg/mL (platelets in whole blood; [4]): 118%

COCCc1nn[nH]n1 [Compound 68, 5-(2-methoxyethyl)-2H-tetrazole]
activity at 670 µg/mL (platelets in whole blood; [5]): 108%
activity at 670 µg/mL (platelets in whole blood; [6]): 100%
activity at 670 µg/mL (platelets in whole blood; [7]): 110%
activity at 3300 µg/mL (platelets in whole blood; [5]): 107%
activity at 3300 µg/mL (platelets in whole blood; [6]): 100%
activity at 3300 µg/mL (platelets in whole blood; [7]): 114%
activity at 6700 µg/mL (platelets in whole blood; [2]): 129%
activity at 6700 µg/mL (platelets in whole blood; [3]): 186%
activity at 6700 µg/mL (platelets in whole blood; [4]): 175%

Sc1ncc[nH]1 [Compound 84, 1H-imidazole-2-thiol]
activity at 6700 µg/mL (platelets in whole blood; [2]): 99%
activity at 6700 µg/mL (platelets in whole blood; [3]): 113%
activity at 6700 µg/mL (platelets in whole blood; [4]): 105%
activity at 11700 µg/mL (platelets in whole blood; [5]): 110%
activity at 11700 µg/mL (platelets in whole blood; [6]): 121%
activity at 11700 µg/mL (platelets in whole blood; [7]): 111%
activity at 23300 µg/mL (platelets in whole blood; [5]): 128%
activity at 23300 µg/mL (platelets in whole blood; [6]): 149%
activity at 23300 µg/mL (platelets in whole blood; [7]): 142%
activity in the platelet assays (active agent or inactive) (platelets in whole blood): met the criteria for active agents
IC50 (mg/ml) mitochondria inhibition [1]: 17.3 mg/mL (≈ 173 mM)

Cn1cncn1 [Compound 8, 1-Methyl-1,2,4-triazole]
activity at 3300 µg/mL (platelets in whole blood; [5]): 104%
activity at 3300 µg/mL (platelets in whole blood; [6]): 105%
activity at 3300 µg/mL (platelets in whole blood; [7]): 98%
activity at 5000 µg/mL (platelets in whole blood; [5]): 105%
activity at 5000 µg/mL (platelets in whole blood; [6]): 121%
activity at 5000 µg/mL (platelets in whole blood; [7]): 118%
activity at 6700 µg/mL (platelets in whole blood; [2]): 105%
activity at 6700 µg/mL (platelets in whole blood; [3]): 130%
activity at 6700 µg/mL (platelets in whole blood; [4]): 121%

Cc1ncsc1CCCl [Compound 45, 5-(2-chloroethyl)-4-methyl-thiazole]
activity at 6700 µg/mL (platelets in whole blood; read-out: % clot time increase): 101%
activity at 6700 µg/mL (platelets in whole blood; read-out: % clump time increase): 119%
activity at 6700 µg/mL (platelets in whole blood; read-out: % stick time increase): 108%

Cc1ncsc1C [Compound 92, 4,5-dimethylthiazole]
activity at 700 µg/mL (platelets in whole blood; [5]): 100%
activity at 700 µg/mL (platelets in whole blood; [6]): 112%
activity at 700 µg/mL (platelets in whole blood; [7]): 118%
activity at 3300 µg/mL (platelets in whole blood; [5]): 101%
activity at 3300 µg/mL (platelets in whole blood; [6]): 176%
activity at 3300 µg/mL (platelets in whole blood; [7]): 171%
activity at 6700 µg/mL (platelets in whole blood; [2]): 106%
activity at 6700 µg/mL (platelets in whole blood; [3]): 195%
activity at 6700 µg/mL (platelets in whole blood; [4]): 179%
activity at 11700 µg/mL (platelets in whole blood; [5]): 126%
activity at 11700 µg/mL (platelets in whole blood; [6]): 224%
activity at 11700 µg/mL (platelets in whole blood; [7]): 211%
activity at 23300 µg/mL (platelets in whole blood; [5]): 162%
activity at 23300 µg/mL (platelets in whole blood; [6]): 717%
activity at 23300 µg/mL (platelets in whole blood; [7]): 546%
IC50 (mg/ml) mitochondria inhibition [1]: 50.9 mg/mL (≈ 450 mM)

Cn1c(-c2ccccc2)c[nH]c1=S [Compound 91, 3-methyl-4-phenyl-1H-imidazole-2-thione]
activity in the platelet assays (active agent or inactive) (platelets in whole blood): inactive
IC50 (mg/ml) mitochondria inhibition [1]: 5.4 mg/mL (≈ 28.4 mM)

C[N+](C)(C)[C@@H](Cc1c[nH]c(=S)[nH]1)C(=O)[O-] [Compound 50, (2S)-3-(2-thioxo-1,3-dihydroimidazol-4-yl)-2-(trimethylammonio) propanoate]
activity in the platelet assays (active agent or inactive) (platelets in whole blood): inactive
IC50 (mg/ml) mitochondria inhibition [1]: 86 mg/mL (≈ 375 mM)

Cn1cnnc1S [Compound 33, 4-methyl-1,2,4-triazole-3-thiol]
activity at 5000 µg/mL (platelets in whole blood; [5]): 100%
activity at 5000 µg/mL (platelets in whole blood; [6]): 100%
activity at 5000 µg/mL (platelets in whole blood; [7]): 119%
activity at 6700 µg/mL (platelets in whole blood; [2]): 108%
activity at 6700 µg/mL (platelets in whole blood; [3]): 115%
activity at 6700 µg/mL (platelets in whole blood; [4]): 123%

C=CCSCC=C [Compound 86, 3-allylsulfanylprop-1-ene]
activity in the platelet assays (active agent or inactive) (platelets in whole blood): none of them were active agents

O=C(O)CCCCC1CCSS1 (single isomer, unassigned) [Compound 90, 5-[(3R or 3S)-dithiolan-3-yl]pentanoic acid]
activity at 3300 µg/mL (platelets in whole blood; [5]): 97%
activity at 3300 µg/mL (platelets in whole blood; [6]): 102%
activity at 3300 µg/mL (platelets in whole blood; [7]): 104%
activity at 6700 µg/mL (platelets in whole blood; [2]): 104%
activity at 6700 µg/mL (platelets in whole blood; [3]): 97%
activity at 6700 µg/mL (platelets in whole blood; [4]): 100%
activity at 11700 µg/mL (platelets in whole blood; [5]): 100%
activity at 11700 µg/mL (platelets in whole blood; [6]): 110%
activity at 11700 µg/mL (platelets in whole blood; [7]): 110%
activity at 23300 µg/mL (platelets in whole blood; [5]): 110%
activity at 23300 µg/mL (platelets in whole blood; [6]): 129%
activity at 23300 µg/mL (platelets in whole blood; [7]): 136%
activity in the platelet assays (active agent or inactive) (platelets in whole blood): inactive
IC50 (mg/ml) mitochondria inhibition [1]: 37.1 mg/mL (≈ 180 mM)
